Measured values: PubChem BioAssay (NCI)
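Test compounds were applied to cells in 96-well plates for 48 hours at 5 doses. TGI marks complete inhibition of growth.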

Columns and labels:
Test in all cases: NCI tumour cell line growth inhibition, 48 h
[1] = test system: HOP-18 NSCLC
[2] = test system: MDA-MB-231 breast
[3] = test system: MDA-MB-435
[4] = test system: U251 CNS
[5] = test system: NCI-H460 lung
[6] = test system: SN12C renal
[7] = test system: SW-620 colon
[8] = test system: DMS 114 small cell lung
[9] = test system: UACC-257 melanoma
[10] = test system: COLO 205 colon
[11] = test system: SF-268 CNS
[12] = test system: HT29 colon
[13] = test system: SNB-19 CNS
[14] = test system: SK-MEL-2 melanoma
[15] = test system: T-47D breast
[16] = test system: KM12 colon
[17] = test system: HOP-62 NSCLC
[18] = test system: SF-295 CNS
[19] = test system: BT-549 breast
[20] = test system: TK-10 renal
[21] = test system: HL-60(TB) leukemia
[22] = test system: A498 renal
[23] = test system: RXF 393 renal
[24] = test system: OVCAR-8 ovarian
[25] = test system: OVCAR-4 ovarian
[26] = test system: MDA-N
[27] = test system: HCT-15 colon
[28] = test system: SK-MEL-5 melanoma
[29] = test system: HCT-116 colon
[30] = test system: KM20L2 colon
[31] = test system: SF-539 CNS
[32] = test system: IGROV1 ovarian
[33] = test system: A549 NSCLC
[34] = test system: NCI-H522 lung
[35] = test system: MOLT-4 leukemia
[36] = test system: HCC-2998 colon
[37] = test system: NCI-H23 lung
[38] = test system: 786-0 renal
[39] = test system: DMS 273 small cell lung
[40] = test system: NCI-H226 lung
[41] = test system: MALME-3M melanoma
[42] = test system: UACC-62 melanoma
[43] = test system: SNB-78 CNS
[44] = test system: EKVX NSCLC
[45] = test system: SR leukemia
[46] = test system: OVCAR-3 ovarian
[47] = test system: OVCAR-5 ovarian
[48] = test system: XF 498 CNS
[49] = test system: LOX IMVI melanoma
[50] = test system: RPMI-8226 leukemia
[51] = test system: SK-OV-3 ovarian
[52] = test system: DU-145 prostate
[53] = test system: MCF7 breast
[54] = test system: ACHN renal
[55] = test system: LXFL 529 NSCLC
[56] = test system: SK-MEL-28 melanoma
[57] = test system: HS 578T breast
[58] = test system: CAKI-1 renal
[59] = test system: HOP-92 NSCLC
[60] = test system: M19-MEL melanoma
[61] = test system: PC-3 prostate
[62] = test system: SNB-75 CNS
[63] = test system: UO-31 renal
[64] = test system: DLD-1 colon
[65] = test system: NCI/ADR-RES ovarian
[66] = test system: K-562 leukemia
[67] = test system: M14 melanoma
[68] = test system: RXF-631 renal
[69] = test system: P388 leukemia
[70] = test system: P388/ADR leukemia
[71] = test system: SN12K1 renal
[72] = test system: CCRF-CEM leukemia

## C=C1C(=O)OC2/C=C(CO)/C=C\C3OC3(C)CC(OC(=O)/C(C)=C/COC(C)=O)C12 (centres undefined)
[1]
  TGI: 22.1 µM
[2]
  TGI: 9.13 µM
[3]
  TGI: 4.32 µM
[4]
  TGI: 14.5 µM
[5]
  TGI: 15.3 µM
[6]
  TGI: 5.63 µM
[7]
  TGI: 3.24 µM
[8]
  TGI: 10.9 µM
[9]
  TGI: 6.59 µM
[10]
  TGI: 2.99 µM
[11]
  TGI: 15.4 µM
[12]
  TGI: 7.39 µM
[13]
  TGI: 25.1 µM
[14]
  TGI: 7.88 µM
[15]
  TGI: 7.53 µM
[16]
  TGI: 14.2 µM
[17]
  TGI: 35.5 µM
[18]
  TGI: 28.3 µM
[19]
  TGI: 3.25 µM
[20]
  TGI: 14 µM
[21]
  TGI: 1.48 µM
[22]
  TGI: 20.6 µM
[23]
  TGI: 4.12 µM
[24]
  TGI: 7 µM
[25]
  TGI: 16.4 µM
[26]
  TGI: 4.13 µM
[27]
  TGI: 4.27 µM
[28]
  TGI: 15.9 µM
[29]
  TGI: 2.83 µM
[30]
  TGI: 17 µM
[31]
  TGI: 4.39 µM
[32]
  TGI: 23.9 µM
[33]
  TGI: 28.5 µM
[34]
  TGI: 1.81 µM
[35]
  TGI: 5.49 µM
[36]
  TGI: 28.8 µM
[37]
  TGI: 8.53 µM
[38]
  TGI: 4.36 µM
[39]
  TGI: 4.3 µM
[40]
  TGI: 27.7 µM
[41]
  TGI: 3.38 µM
[42]
  TGI: 4.96 µM
[43]
  TGI: 23.4 µM
[44]
  TGI: 12.8 µM
[45]
  TGI: 13.7 µM
[46]
  TGI: 6.68 µM
[47]
  TGI: 26.9 µM
[48]
  TGI: 6.47 µM
[49]
  TGI: 3.05 µM
[50]
  TGI: 4.33 µM
[51]
  TGI: 31.7 µM
[52]
  TGI: 30.2 µM
[53]
  TGI: 16.4 µM
[54]
  TGI: 9.16 µM
[55]
  TGI: 4.27 µM
[56]
  TGI: 3.26 µM
[57]
  TGI: 11.8 µM
[58]
  TGI: 10.9 µM
[59]
  TGI: 5.94 µM
[60]
  TGI: 4.15 µM
[61]
  TGI: 21.6 µM
[62]
  TGI: 20.7 µM
[63]
  TGI: 17.9 µM
[64]
  TGI: 2.49 µM
[65]
  TGI: 15.8 µM
[66]
  TGI: > 20.7 µM
[67]
  TGI: 5.64 µM
[68]
  TGI: 12.1 µM

## COc1cc(C2c3cc4c(cc3[C@@H](Nc3cnc5ccccc5c3)C3COC(=O)[C@H]23)OCO4)cc(OC)c1O (some centres undefined)
[1]
  TGI: 2.65 µM
[4]
  TGI: 0.6 µM
[5]
  TGI: 0.397 µM
[8]
  TGI: 1.82 µM
[69]
  TGI: 0.374 µM
[9]
  TGI: 6.64 µM
[10]
  TGI: 3.39 µM
[11]
  TGI: 3.9 µM
[12]
  TGI: 4.2 µM
[13]
  TGI: 9.53 µM
[14]
  TGI: 3.58 µM
[16]
  TGI: 2.67 µM
[17]
  TGI: 0.481 µM
[70]
  TGI: 1.36 µM
[18]
  TGI: 1.14 µM
[21]
  TGI: 0.377 µM
[22]
  TGI: 1.38 µM
[23]
  TGI: 3 µM
[24]
  TGI: 5 µM
[25]
  TGI: 4.43 µM
[27]
  TGI: 1.31 µM
[28]
  TGI: 1.78 µM
[29]
  TGI: 2.26 µM
[31]
  TGI: 0.82 µM
[32]
  TGI: 10.4 µM
[33]
  TGI: 0.789 µM
[34]
  TGI: 3.19 µM
[36]
  TGI: 2.24 µM
[37]
  TGI: 2.02 µM
[71]
  TGI: 2.08 µM
[39]
  TGI: 1.34 µM
[40]
  TGI: 1.23 µM
[41]
  TGI: 2.43 µM
[42]
  TGI: 2.06 µM
[43]
  TGI: > 100 µM
[44]
  TGI: 9.09 µM
[72]
  TGI: 0.463 µM
[46]
  TGI: 3.9 µM
[47]
  TGI: 2.25 µM
[48]
  TGI: 4.66 µM
[50]
  TGI: 1.9 µM
[51]
  TGI: 6.18 µM
[53]
  TGI: > 31.7 µM
[56]
  TGI: 3.85 µM
[58]
  TGI: 1.78 µM
[59]
  TGI: 2.81 µM
[60]
  TGI: 3.28 µM
[63]
  TGI: 3.3 µM
[64]
  TGI: 3.69 µM
[65]
  TGI: 7.93 µM
[66]
  TGI: 7.33 µM
